One experiment has as its system RLS. To be noted: treatment of RLS; cited from earlier work.
Experiment [1] deals with 6-hydroxydopamine lesioned rats. To be noted: treated lesioned rats compared with untreated lesioned rats. Here is the method: 6-hydroxydopamine is an agent that selectively disrupts or destroys catecholaminergic systems. Thus, stereotaxic bilateral 6-hydroxydopamine lesions into the nucleus of dopaminergic diencephalic spinal neurons (A11) are performed to effect behavior consistent, although not specific, with what would be expected in a rat model of RLS. (Ondo W. G. et al., Clinical Correlates of 6-Hydroxydopamine Injections into A11 Dopaminergic Neurons in Rats: A Possible Model for Restless Leg Syndrome, Mov. Disord., 2000, 15(1):154-8)

With `Clc1cccc(Cl)c1N=C1NCCN1` [Clonidine], in the experiment with RLS, the “quality of sleep, frequency of waking up, periodic leg movement during sleep” value is given as “no effect” and the soporiferous latency entry was “reduced”.

Take `C#CCN[C@@H]1CCc2ccccc21.CS(=O)(=O)O` [R(+)PAI mesylate, R(+)-N-propargyl-1-aminoindan mesylate]: in experiment [1], the “number of standing episodes” value is listed as “fewer standing episodes” and the total standing time entry is given as “less total standing time”.
